Experiment [1] has as its target T1, Acetylcholinesterase (Electrophorus electricus, UniProt O42275).
Description: Inhibition of electric eel AChE preincubated for 30 mins prior to horseradish peroxidase, H2O2 and DETAPAC addition measured for 20 mins under ROS condition by Muraoka and Miura method
Experiment [2] addresses T1, Acetylcholinesterase. The source holds these as a separate data set.
Description: Inhibition of electric eel AChE using acetylthiocholine as substrate preincubated for 10 mins prior to substrate addition measured every 30 seconds for 30 mins by Ellman's method
For experiment [3], the target named is Acetylcholinesterase (Electrophorus electricus) (UniProt O42275). Briefly: Ratio of tacrine IC50 to compound IC50 for electric eel AChE.
Experiment [4] shares this target. Briefly: Ratio of tacrine IC50 to compound IC50 for electric eel AChE in presence of horseradish peroxidase and H2O2 and DETAPAC.
Experiment [5] shares this target. Briefly: Non competitive inhibition of electric eel AChE using acetylthiocholine as substrate by Lineweaver-Burk plot analysis.

By IC50 is commonly meant the midpoint of a concentration-inhibition curve.

Activity calls are given as the source filed them. The rule behind the calls is not given here.

Chain of Acetylcholinesterase (Electrophorus electricus) (O42275 24-633 limits assumed): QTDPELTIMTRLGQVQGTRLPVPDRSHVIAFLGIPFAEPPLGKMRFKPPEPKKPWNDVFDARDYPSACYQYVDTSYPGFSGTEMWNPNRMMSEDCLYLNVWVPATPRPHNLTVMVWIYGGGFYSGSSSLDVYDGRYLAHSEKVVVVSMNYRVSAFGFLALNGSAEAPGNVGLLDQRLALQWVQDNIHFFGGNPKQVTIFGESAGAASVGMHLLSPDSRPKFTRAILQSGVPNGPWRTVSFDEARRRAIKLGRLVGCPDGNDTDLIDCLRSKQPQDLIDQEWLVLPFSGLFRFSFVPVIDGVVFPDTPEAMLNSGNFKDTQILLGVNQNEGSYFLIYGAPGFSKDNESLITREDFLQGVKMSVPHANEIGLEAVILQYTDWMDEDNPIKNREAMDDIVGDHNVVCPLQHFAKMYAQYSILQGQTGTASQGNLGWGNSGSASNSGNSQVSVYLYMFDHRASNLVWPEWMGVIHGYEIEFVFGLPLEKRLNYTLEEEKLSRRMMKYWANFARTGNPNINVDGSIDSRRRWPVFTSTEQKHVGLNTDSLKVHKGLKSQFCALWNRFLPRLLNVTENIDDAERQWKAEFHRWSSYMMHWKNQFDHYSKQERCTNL
T1 sequence (O42275 whole entry): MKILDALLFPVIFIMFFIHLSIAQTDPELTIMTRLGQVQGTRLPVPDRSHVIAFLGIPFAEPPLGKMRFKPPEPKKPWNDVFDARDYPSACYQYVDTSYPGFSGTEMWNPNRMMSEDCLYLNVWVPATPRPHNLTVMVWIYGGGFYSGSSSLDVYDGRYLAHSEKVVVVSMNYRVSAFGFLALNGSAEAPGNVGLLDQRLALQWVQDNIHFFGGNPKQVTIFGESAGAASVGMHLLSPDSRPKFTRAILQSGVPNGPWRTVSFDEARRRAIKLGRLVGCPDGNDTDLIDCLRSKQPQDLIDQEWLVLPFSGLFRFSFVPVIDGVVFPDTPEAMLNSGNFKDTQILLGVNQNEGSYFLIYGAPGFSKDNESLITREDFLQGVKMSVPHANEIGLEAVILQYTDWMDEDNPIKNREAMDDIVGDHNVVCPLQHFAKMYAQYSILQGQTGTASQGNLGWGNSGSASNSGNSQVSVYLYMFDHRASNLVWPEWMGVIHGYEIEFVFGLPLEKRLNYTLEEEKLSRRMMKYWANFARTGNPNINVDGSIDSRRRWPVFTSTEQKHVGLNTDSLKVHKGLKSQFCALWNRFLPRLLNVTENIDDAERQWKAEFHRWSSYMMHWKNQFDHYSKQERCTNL

With `NCCCCNc1c2c(nc3cc(Cl)ccc13)CCCC2`, the IC50 was found to be 65.8 nM in experiment [1] and 38 nM in experiment [2].
The like results for `Cc1cccc(Nc2ccccc2C(=O)NCCCC(=O)NCCCCNc2c3c(nc4cc(Cl)ccc24)CCCC3)c1C` were, in that order, 12.4 nM and 13.6 nM.
For `Cc1cccc(Nc2ccccc2C(=O)NCCC(=O)NCCCCCCNc2c3c(nc4cc(Cl)ccc24)CCCC3)c1C`, in that order: 2.96 nM and 1.14 nM.
Regarding `CCCCCCCCNc1c2c(nc3cc(Cl)ccc13)CCCC2`, the IC50 in experiment [1] is 7.95 nM; in experiment [2], 19.6 nM. In addition, the Ratio IC50 in experiment [3] was under 5.
As to `NCCCCCCCCCCCCNc1c2c(nc3cc(Cl)ccc13)CCCC2`, the figures for the IC50 in experiment [1] and in experiment [2] were 1.44 nM and 0.648 nM, respectively. Besides, the Ratio IC50 amounted to 30 in experiment [4] and 50 in experiment [3].
As for `NCCCCCCCNc1c2c(nc3cc(Cl)ccc13)CCCC2`, the half-maximal inhibitory concentration (IC50) came out at 15.1 nM in experiment [1] and 5.37 nM in experiment [2].
`CCCCCCNc1c2c(nc3cc(Cl)ccc13)CCCC2`: the IC50 in experiment [1] was found to be 26.2 nM; in experiment [2], 65.3 nM. In experiment [3], the Ratio IC50 was under 5.
Regarding `Cc1cccc(Nc2ccccc2C(=O)NCCCCCCCNc2c3c(nc4cc(Cl)ccc24)CCCC3)c1C`, the IC50 in experiment [1] worked out at 29.8 nM; in experiment [2], 1380 nM.
The like results for `Cc1cccc(Nc2ccccc2C(=O)NCCCCCCCCCCCCNc2c3c(nc4cc(Cl)ccc24)CCCC3)c1C` were, in that order, 16.2 nM and 2360 nM.
The like results for `Cc1cccc(Nc2ccccc2C(=O)NCCCCCC(=O)NCCCCNc2c3c(nc4cc(Cl)ccc24)CCCC3)c1C` were, in that order, 0.299 nM and 37.4 nM.
`CCCCCCCNc1c2c(nc3cc(Cl)ccc13)CCCC2`: the results for the IC50 in experiment [1] and in experiment [2] were 2.03 nM and 16 nM, respectively. Besides, the inhibition entry in experiment [5] was “Active”. Besides, the Ratio IC50 in experiment [3] turned out to be 3.
Regarding `Cc1cccc(Nc2ccccc2C(=O)NCCCC(=O)NCCCCCCCNc2c3c(nc4cc(Cl)ccc24)CCCC3)c1C`, the IC50 came to 6.55 nM in experiment [1] and 7.91 nM in experiment [2].
For `Cc1cccc(Nc2ccccc2C(=O)NCCCCCC(=O)NCCCCCCNc2c3c(nc4cc(Cl)ccc24)CCCC3)c1C`, in that order: 7.39 nM and 2.94 nM.
The like results for `NCCCCCNc1c2c(nc3cc(Cl)ccc13)CCCC2` were, in that order, 938 nM and 51 nM.
Turning to `CCCCCCCCCCNc1c2c(nc3cc(Cl)ccc13)CCCC2`, the IC50 in experiment [1] stood at 252 nM; in experiment [2], 5.17 nM. In addition, the Ratio IC50 in experiment [3] was 10.
For `CCCCCCCCCNc1c2c(nc3cc(Cl)ccc13)CCCC2`, in that order: 16.9 nM, 2.27 nM and 20.
As for `Cc1cccc(Nc2ccccc2C(=O)NCCCCCCCCCCNc2c3c(nc4cc(Cl)ccc24)CCCC3)c1C`, the IC50 is 1.85 nM in experiment [1] and 0.776 nM in experiment [2].
For `Cc1cccc(Nc2ccccc2C(=O)NCCC(=O)NCCCCNc2c3c(nc4cc(Cl)ccc24)CCCC3)c1C`, in that order: 33 nM and 2470 nM.
As to `OCCCCCNc1c2c(nc3cc(Cl)ccc13)CCCC2`, the IC50 in experiment [1] stood at 1520 nM; in experiment [2], 72.5 nM.
The like results for `Cc1cccc(Nc2ccccc2C(=O)NCCCCCCCCNc2c3c(nc4cc(Cl)ccc24)CCCC3)c1C` were, in that order, 1.49 nM and 0.495 nM.
For `Cc1cccc(Nc2ccccc2C(=O)NCCC(=O)NCCCCCCCNc2c3c(nc4cc(Cl)ccc24)CCCC3)c1C`, the IC50 in experiment [1] was found to be 10 nM; in experiment [2], 6.67 nM.
Regarding `NCCCCCCNc1c2c(nc3cc(Cl)ccc13)CCCC2`, the IC50 in experiment [1] stood at 7.85 nM; in experiment [2], 11.1 nM. Also, the inhibition entry in experiment [5] is “Active”.
As to `NCCCCCCCCNc1c2c(nc3cc(Cl)ccc13)CCCC2`, the IC50 in experiment [1] amounted to 293 nM; in experiment [2] it was 1.14 nM. Also, the Ratio IC50 in experiment [3] came to 50.
For `CCCCCNc1c2c(nc3cc(Cl)ccc13)CCCC2`, in that order: 43.2 nM, 26.3 nM and under 5.
Regarding `Cc1cccc(Nc2ccccc2C(=O)NCCCC(=O)NCCCCCCNc2c3c(nc4cc(Cl)ccc24)CCCC3)c1C`, the results for the half-inhibitory concentration (IC50) in experiment [1] and in experiment [2] were 15.6 nM and 41.7 nM, respectively.
In the case of `NCCCCCCCCCCNc1c2c(nc3cc(Cl)ccc13)CCCC2`, the IC50 worked out at 2.18 nM in experiment [1] and 0.932 nM in experiment [2]. For the same compound, the Ratio IC50 in experiment [4] came out at 30; in experiment [3] it was 50.
Consider `Cc1cccc(Nc2ccccc2C(=O)NCCCCCCNc2c3c(nc4cc(Cl)ccc24)CCCC3)c1C`, for which the IC50 in experiment [1] was 1.02 nM; in experiment [2] it was 7230 nM.
Take `OCCCCCCNc1c2c(nc3cc(Cl)ccc13)CCCC2`: the concentration for half-maximal inhibition (IC50) in experiment [1] was 2.47 nM; in experiment [2], 42.4 nM. For the same compound, the inhibition result in experiment [5] was “Active”.
Turning to `Cc1cccc(Nc2ccccc2C(=O)NCCCCCCCCCNc2c3c(nc4cc(Cl)ccc24)CCCC3)c1C`, the IC50 stood at 6.72 nM in experiment [1] and 6.94 nM in experiment [2].
As to `NCCCCCCCCCNc1c2c(nc3cc(Cl)ccc13)CCCC2`, the IC50 in experiment [1] came to 1.22 nM; in experiment [2], 0.604 nM. Besides, the inhibition entry in experiment [5] was “Active”. Besides, the Ratio IC50 in experiment [4] was 30; in experiment [3], 50.
Turning to `Cc1cccc(Nc2ccccc2C(=O)NCCCCCC(=O)NCCCCCCCNc2c3c(nc4cc(Cl)ccc24)CCCC3)c1C`, the figures for the IC50 in experiment [1] and in experiment [2] were 13.4 nM and 11.1 nM, respectively.

The record behind these values is ChEMBL document CHEMBL2390919, “Investigation of the role of linker moieties in bifunctional tacrine hybrids” (Bioorg Med Chem, 2013).
